The record followed here is US20110268742A1, “PCTP MODULATORS IN THE TREATMENT OF ACNE, OF SEBORRHOEIC DERMATITIS OR OF HYPERSEBORRHOEA” (Galderma Research & Development, priority 2008, published 2011).

Assay [1] relates to PCTP (phosphatidylcholine transfer protein) gene expression. As to the kind of experiment: Expression of PCTP in rat sebaceous gland (epidermal split) after topical PPARgamma agonist, real-time PCR kinetics. The assay is classed as in vivo. The settings on record: for PCTP relative induction: topical 1% in acetone, female Fuzzy rats, standardized to 18S, versus carrier group; for PCTP expression in vivo at the level of the sebaceous glands following topical treatment: topical treatment with PPARγ ligand at 1%. The source says:
Number per batch: 40 (8 animals per group)
Treatment: Route of administration: topical
Compound/batch: PPARgamma agonists: • A: 5-{4-[2-(methylpyridin-2-ylamino)ethoxy]-benzyl}thiazolidine-2,4-dione • B: (2-methoxyethoxymethoxy)naphthalene-2-carboxylic acid [4′-(2,4-dioxothazolidin-5-ylmethyl)biphenyl-3-ylmethyl]methylamide or rosiglitazone • C: (S)-2-ethoxy-3-{4-[6-(3-heptyl-1-methyl-ureido)pyridin-2-yl]phenyl}propionic acid
Method of evaluation: The animals are weighed at the beginning and at the end of the study. Skin biopsies are taken (6 samples of skin excised per rat) in order to analyse the expression of the genes (RNA extraction, reverse transcriptase and real-time PCR). The samples are stored overnight at 4° C. before incubation in 1M sodium bromide (NaBr) for 2 hours at 37° C. After incubation, the samples are separated into epidermis or dermis. The epidermal samples are stored at […]. Under these conditions, the sebaceous glands are in the epidermal split. PCRs are carried out, beginning with the cDNAs originating from the epidermal splits controlling sebaceous glands from control rats or rats treated with a PPARγ agonist; the mRNA is extracted using a column and quantified. The quality of the mRNAs is measured and is represented by the 18S/28S ratio. The results are standardized with respect to 18S, expressed as relative induction versus untreated animals (carrier group). The statistical analysis is obtained using internal software based on a modified Monte Carlo statistical analysis.
(In general: Real-time PCR tracks product formation cycle by cycle.)

The test system is the same in assay [2]. As to the kind of experiment: Expression of PCTP in Fuzzy rat epidermal split after 8 days of topical treatment, Affymetrix transcriptome analysis. The assay is classed as in vivo. The settings on record: female Fuzzy rats, topical 1% once a day for 8 days, Affymetrix 1387058_at, control condition 143. As for the experimental part: Fuzzy Rat Epidermal Split Expression Data
The studies are carried out in female Fuzzy rats (Hsd: Fuzzy-fz) ten weeks old at the beginning of the study. The animals are treated at a dose of 1% (PPARg agonist rosiglitazone in solution in acetone) once a day for 8 days. Two hours after the final treatment, the animals are sacrificed by euthanasia and the skin on the back is removed. After incubation in dispase, the epidermis carrying the sebaceous glands is detached from the dermis (epidermal split). After grinding of the samples, the mRNA is prepared using Qiagen columns, in accordance with the supplier's instructions. The material thus prepared is subjected to large-scale transcriptome analysis on an Affymetrix platform. The data are subsequently standardized and, after statistical analysis, the results produced are expressed in arbitrary expression units (see below) accompanied, for each piece of data, by a statistical value for presence of the transcript (presence=1; absence=0).

For the compound `CN(CCOc1ccc(CC2SC(=O)NC2=O)cc1)c1ccccn1` (stereo not shown) [A, 5-{4-[2-(methylpyridin-2-ylamino)ethoxy]-benzyl}thiazolidine-2,4-dione], the PCTP relative induction in assay [1] (0 hours) came out at 1; in assay [1] (8 hours), 7.06; in assay [1] (24 hours) it was 8.54; in assay [1] (48 hours) it was 6.70; in assay [1] (96 hours), 3.38. For the same compound, the “PCTP expression in vivo at the level of the sebaceous glands following topical treatment” value (“PCTP expression in vivo at the level” below) in assay [1] is given as “modulated”.

On to `CCCCCCCNC(=O)N(C)c1cccc(-c2ccc(C[C@H](OCC)C(=O)O)cc2)n1` [C, (S)-2-ethoxy-3-{4-[6-(3-heptyl-1-methyl-ureido)pyridin-2-yl]phenyl}propionic acid], for which the PCTP relative induction in assay [1] (0 hours) is 1; in assay [1] (8 hours) it was 1.54; in assay [1] (24 hours), 3.69; in assay [1] (48 hours) it was 3.11; in assay [1] (96 hours), 1.38. Also, the “PCTP expression in vivo at the level” value in assay [1] is recorded as “modulated”.

Consider “(2-methoxyethoxymethoxy)naphthalene-2-carboxylic acid [4′-(2,4-dioxothazolidin-5-ylmethyl)biphenyl-3-ylmethyl]methylamide”, for which, in assay [2], the “Expression after treatment with 1% rosiglitazone” value is recorded as 445 arbitrary expression units. Also, the PCTP relative induction was determined as 1 in assay [1] (0 hours); 2.57 in assay [1] (8 hours); 2.79 in assay [1] (24 hours); 3.37 in assay [1] (48 hours); 1.15 in assay [1] (96 hours). Also, the “PCTP expression in vivo at the level” value in assay [1] was “modulated”.
